The source of these data is publication PMC6457909 (Science (New York, N.Y.), 2019).

Each structure is given as a SMILES string.

Series [1] can be described thus: Metabolic stability in liver microsomes. The note with it: human liver microsomes, versus earlier compounds.
Series [2] can be described thus: Metabolic stability in liver microsomes. Particulars: murine liver microsomes, versus earlier compounds.
Series [3] concerns MDCK cells. Put plainly: Cell toxicity assay.
The subject of series [4] is H1N1 A/Brisbane/59/2007 HA. The series is classed as biochemical, influenza A virus. Particulars: pH 5.25.
Series [5] deals with H1N1 A/California/07/2009 (H1/Cal). The series is classed as cell-based, influenza A virus. Particulars: read-out: virus neutralization EC50 for H1/Cal.
For series [6], the system named is H1N1 A/PR/8/1934 virus. Kind of series: Mouse influenza challenge, sublethal. The series is classed as in vivo. The note with it: for survival: sublethal challenge (MLD90).
Series [7] in a line: In vivo pharmacokinetics. The arrangement: species or system mouse. Particulars: mice.
In series [8] the test system is H5 HA compared to H1 HA. The series is classed as binding, influenza A virus.
Series [9] deals with H1N1 A/PR/8/1934 virus. Kind of series: Mouse influenza challenge, lethal. It is filed as in vivo. The note with it: for survival at day 21: lethal challenge 25x MLD.
Series [10] deals with panel of pharmacologically relevant receptors, ion channels, and transporters. Kind of series: In vitro selectivity profiling. It is filed as binding. Particulars: 10 µM.
The test system of series [11] is H1N1 A/New Caledonia/20/1999 (H1/NCa). The series is classed as cell-based, influenza A virus. Particulars: read-out: virus neutralization EC50 for H1/NCa.
Series [12] has as its system H1N1 A/PR/8/1934 virus in human bronchial epithelial cells (HBEC). Put plainly: Viral neutralization assay in HBEC cultures. The series is classed as cell-based. Particulars: 96 hours post-infection.
Series [13] deals with influenza A group 1 viruses. It is filed as cell-based, influenza A virus.
The nature of series [14]: Kinetic solubility. Particulars: versus earlier compounds.

As for `CC(=O)Nc1ccc2oc(-c3ccnc(C(=O)N4CCN([C@H](c5ccccc5)c5nnn(C)n5)CC4)c3)nc2c1` [JNJ4796], the “intrinsic clearance (in words)” value in series [1] and in [2] was “significantly reduced” each time. The cytotoxicity entry in series [3] is recorded as “without cytotoxicity”. The “inhibition of low pH-induced HA conformational change” value in series [4] was “dose-dependently prevents pH-induced transition of HA to the post-fusion conformation”. Moreover, the EC50 amounted to 66 nM in [5] and 38 nM in [11]. Besides, the survival in series [6] (5 mg/kg twice daily oral) and in [6] (15 mg/kg twice daily oral) was 100% throughout. Also, in series [6] (sublethal challenge, 15 and 5 mg/kg twice daily), the weight loss entry is recorded as “only moderate weight loss effects”. Besides, the “half-life (t½)” value in series [7] (after oral administration) turned out to be 2.4 h. The same compound had an overall bioavailability in [7] (oral) of 30.0%. In [7] (oral administration at 10 mg/kg), the “plasma concentration (Cmax)” value is 1152 ng/mL. Also, the “decrease of binding affinity to H5 HA compared to H1 HA” value in [8] is ~ 25 fold. In addition, the “survival at day 21” value in series [9] (10 mg/kg twice daily oral) and in series [9] (50 mg/kg twice daily oral) was 100% in each case. Moreover, the “morbidity (animal weight loss)” value in series [9] (lethal challenge, 50 and 10 mg/kg) is “only partly alleviated morbidity”. Besides, the inhibition of off-targets entry in series [10] is on record as “does not substantially inhibit any of these potential off-targets”. Also, the viral titers result in series [12] was “dramatically reduced the viral titers”. Also, the “breadth of virus neutralization” value in series [13] was “heterosubtypic group 1 HA binding and virus neutralization breadth”. The “aqueous solubility (in words)” value in series [14] was “increased”.
